Laboratory results published in US5536740A, “Skin care compositions containing dimethyl imidazolidinone and retinol or retinyl ester” (priority 1995, dated 1996).

Legend:
[1] = test system: TGase I in human keratinocytes; experiment: ELISA based transglutaminase I (TGase I) assay of keratinocyte differentiation; format: cell-based
Experimental: (§1) Human keratinocytes, isolated from neonatal foreskin by trypsin treatment were grown in Dulbecco Modification Eagle (DME) Hams F12 (1:1) medium/10% fetal calf serum in the presence of irradiated 3T3 mouse fibroblasts for establishing dividing keratinocyte colonies. Cells were grown under the above condition until their second passage and kept frozen for future use. […] On day 7, when the cells were 80-90% confluent, they were trypsinized and plated in the serum-free medium for the various experiments.
Transglutaminase Assay and Keratinocyte Differentiation
During the process of terminal differentiation in the epidermis, a 15 nm thick layer of protein, known as the cornified envelope (CE) is formed on the inner surface of the cell periphery. The CE is composed of numerous distinct proteins which have been cross-linked together by the formation of N^ε -(γ-glutamyl)lysine isodipeptide bonds catalyzed by the action of at least two different transglutaminases (TGases) expressed in the epidermis. TGase 1 is expressed in abundance in the differentiated layers of the epidermis, especially the granular layer, but is absent in the undifferentiated basal epidermis. Thus TGase I is a useful marker of epidermal keratinocyte differentiation with high TGase I levels indicating a more differentiated state. An ELISA based TGase I assay, using a TGase I antibody, was used to assess the state of differentiation of the cultured keratinocytes in the examples that follow.
Keratinocytes (cultured as described above) were plated in 96 well plates at a density of 3,000 cells per well in 200 μl media. After incubation for four days the media was changed to media containing test compounds (six replicates per test). The cells were cultured for a further 72 hours after which time the media was aspirated and the plates stored at -70° C. Plates were removed from the freezer, and the cells washed with PBS. 100 μl sterile water was added and the cells were freeze fractured by freezing at -70° C. then thawing. The cells were incubated for one hour at room temperature (R/T) with PBS/3% BSA (wash buffer, bovine serum albumin), then rinsed with a fresh aliquot of wash buffer. Cells were incubated with 50 μl of primary antibodies monoclonal anti-human transglutaminase (IgG) obtained from Amersham (mouse) diluted 1:300 in wash buffer for one hour, 37° C. then rinsed two times with wash buffer. Cells were then incubated with 50 μl of secondary antibody (Feb fragment, peroxidase conjugated anti-mouse IgG obtaining from Amersham) diluted 1:200 in wash buffer for one hour at 37° C., then rinsed two times with wash buffer. Cells were incubated with substrate solution (4 mg o-phenylene diamine and 3.3 μl 30% H2 O2 in 10 ml 0.1M citrate buffer pH 5.0) for five minutes, R/T, in darkness (under aluminum foil). The reaction was stopped by the addition of 50 μl 4N […]. The absorbance of samples was read at 492 nm in the plate reader. Out of the six replicates, four were treated with both antibodies, two were treated only with the secondary antibody (i.e., to determine background binding of enzyme conjugated Ab). TGase levels were determined by subtracting background from the readings from each treatment and determining mean ±s.d. for the replicates exposed to both Ab.
The level of TGase-1 was normalized to DNA content of the cells in the same well thus eliminating variation due to differences in cell number. DNA quantitation is a particularly useful indicator of cell number, including keratinocyte cell number, because each cell has to all intents and purposes an identical genome and therefore an identical quantity of DNA. The total DNA content of a well of cells therefore is directly proportional to the cell number in that well. Quantitation of DNA was used to normalize the TGase data to cell number.
Keratinocytes were plated in 96 well plates at a density of 3,000 cells per well in […] media.

Human keratinocytes = experiment: 3H-thymidine incorporation assay of keratinocyte proliferation; format: cell-based
Experimental: as §1
^3 H-Thymidine Incorporation and Keratinocyte Proliferation
The incorporation of ^3 H-thymidine by cultured keratinocytes was used as an assay of keratinocyte proliferation. Thymidine is one of four deoxynucleosides which are the monomeric units of DNA, the universal library of genetic information in the animal kingdom. Prior to cell division of a somatic cell such as a keratinocyte, the complete genome of the cell undergoing cell division is replicated. This involves large scale DNA synthesis by the cell and enables both daughter cells to receive identical copies of the genetic material. When ^3 H-thymidine is included in the culture media of keratinocytes which are synthesizing DNA in preparation for cell division then the labelled nucleoside is incorporated into the newly synthesized DNA. The extent of incorporation of ^3 -thymidine into a population of cells is proportional to the rate of DNA synthesis by this population of cells and therefore an indication of their cellular proliferation.
Keratinocytes (that were cultured as described above) were plated in 24 well plates at a density of 40,000 cells per well in 1 ml media. After incubation for four days or until the cells were 60-70% confluent, the media was changed. Test compounds were added (in triplicate) to the wells 24 hours after the media change, and four hours later 1 μCi^3 H-Thymidine in 50 μl media was added per well. Cells were incubated for a further 24 hours. Media was removed from the cells, 10% ice cold trichloroacetic acid (TCA) added and plates were incubated on ice for 30 minutes. Cells were washed five times with 5% TCA and allowed to dissolve in 500 μl 0.1M NaOH for at least one hour (usually overnight). The preparations were neutralized with 0.1M HCl; 50 μl of the cell preparation was used to determine total protein content. Disintegrations per minute (DPM) from a H labelling of DNA was determined by liquid scintillation counting of 900 μl of the cell preparation. Thymidine incorporation results were expressed as DPM/μg protein.

With `CCCCCCCCCCCCCCCC(=O)OC/C=C(C)/C=C/C=C(C)/C=C/C1=C(C)CCCC1(C)C` [Retinyl Palmitate (RP), retinyl palmitate] the “effect on keratinocyte TGase level / differentiation (in words)” value [1] was “significantly less effective than retinoic acid at inhibiting keratinocyte differentiation”, the “mean TGase ± s.d” value ([1]; Example 4, 2.5 × 10^-8 M, n = 3) was 0.790 ± 0.387 and the activity at 0.025 µM ([1]; Homo sapiens, Keratinocyte, 72 h, Example 4, 2.5 × 10^-8 M, n = 3, read-out: mean TGase (% control)) was 79%. The “effect on keratinocyte proliferation (in words)” value (Human keratinocytes) was “completely ineffective at increasing keratinocyte proliferation”, the “mean Thymidine incorp/μg protein ± s.d” value (Human keratinocytes; Example 4, 2.5 × 10^-8 M, 24 hours, n = 3) was 3386 ± 326 DPM/μg protein and the activity at 0.025 µM (Human keratinocytes; Homo sapiens, Keratinocyte, Example 4, 2.5 × 10^-8 M, 24 hours, n = 3, read-out: mean Thymidine incorp/μg protein (% control)) was 97%.
